Where only a bound is given, the exact number is not on record here.

A word on the IC50: it is the concentration needed to halve the response being measured. High values mean a need for much substance, low ones inhibition by little substance.

The target in assay [1] is T1, Peptide Deformylase (PDF) (Staphylococcus aureus, UniProt P68826).
T1 construct: made in house
T1 sequence (P68826 1-183): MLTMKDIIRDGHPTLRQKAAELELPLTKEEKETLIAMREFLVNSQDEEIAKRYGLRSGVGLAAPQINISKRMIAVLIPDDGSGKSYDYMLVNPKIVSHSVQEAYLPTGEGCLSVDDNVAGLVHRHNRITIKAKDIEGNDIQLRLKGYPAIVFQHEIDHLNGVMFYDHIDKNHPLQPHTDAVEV
The experiment in a line: Bacterial peptide deformylase (PDF) assay, colorimetric cell free, enzyme from S. aureus. Conditions: f-Met-Ala substrate, TNBS detection at 420 nm. Format: biochemical. An excerpt: (§1) To find inhibitors of Peptide Deformylase (PDF), a colorimetric cell free assay for measuring the enzymatic activity of PDF has been adapted to the microtiter plate format (96 wells). The assay comprises three components, purified PDF, f-Met-Ala as substrate and TNBS as the detecting agent of primary amino groups. The resulting TNP_NH-Met-Ala sulfite complex can be detected at 420 nm. PDF enzymes, containing Fe^2+ as the native metal, are purified and are stabilized by the addition of tris(2-carboxyethyl)phosphine (TCEP).
(§2) The IC50 value of a compound of the invention as a bacterial PDF inhibitor was determined using the following assay.
(§3) Assay buffer 0.1 M MOPS pH was adjusted to 7.2 with NaOH, containing 0.25 M NaCl, 100 μg/mL catalase and 1 mg/mL BSA.
(§4) E. coli enzyme (2.5 mg/ml) 10 μl+290 μl Assay buffer, 1 μl per ml enzyme mix. S. aureus (15 mg/ml) 10 μl+990 μl Assay buffer, 0.3 μl per ml enzyme mix.
(§5) Substrate mix: 10 mM f-Met-Ala was made up from 200 mM f-Met-Ala in methanol with assay buffer.
(§6) TNBS solution: Freshly dilute 1 M TNBS stock solution diluted 1:10 with water.
(§7) Buffer C: 0.5 M borate buffer adjusted to pH 9.5 with NaOH.
(§8) Buffer D: 0.2 ml of freshly prepared 0.5 M Na2SO3 was mixed with 9.8 mL of 0.5M NaH2PO4.
(§9) Inhibitor solution: 2 mM Sodium 4-(hydroxymercurio)benzoate in assay buffer.
(§10) Compound mix: Compound of formula I dissolved in DMSO in a 10 mg/mL stock solution. Further dilutions were made in DMSO in the concentration range between 0.05 to 100 mM.
(§11) The assay was performed in a 96 Microtiter plate containing test compound. To each well containing test compound mix was added 75 microliter of enzyme mix from E. coli followed by the addition of 25 microliter of substrate mix. The resulting mix was incubated for 30 minutes at room temperature with shaking. TNBS solution (50 microliter/well) was added and the resulting mixture was incubated for 15 minutes under shaking. Buffer C was then added (20 microliter/well). After incubating at room temperature for 15 minutes under shaking, buffer D was added (50 microliter/well). The optical […] was then measured at 420 nm, thereby determining the IC50 value.
The assay was repeated using enzyme mix from S. aureus.

The target of assay [2] is T2, Peptide Deformylase (PDF) (Escherichia coli, UniProt P0A6K3).
T2 construct: made in house
Briefly: Bacterial peptide deformylase (PDF) assay, colorimetric cell free, enzyme from E. coli. It counts as biochemical.
Excerpt: as §1, §2, §3, §4, §5, §6, §7, §8, §9, §10, §11

T2 sequence (P0A6K3 whole entry): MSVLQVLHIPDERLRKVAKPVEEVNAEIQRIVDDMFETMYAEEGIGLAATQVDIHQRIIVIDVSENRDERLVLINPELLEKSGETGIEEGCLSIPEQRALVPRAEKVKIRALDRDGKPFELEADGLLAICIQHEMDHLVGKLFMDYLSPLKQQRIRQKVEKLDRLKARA

On to `COC(=O)CNC(=O)c1ccc2c(c1)nc(C(CCc1ccccc1)NC(=O)CCC(=O)O)n2CC1CCCCC1` (centres unmarked) [Example 8, N-{1-[1-Cyclohexylmethyl-5-(methoxycarbonylmethyl-carbamoyl)-1H-benzoimidazol-2-yl]-3-phenyl-propyl}-succinamic acid], for which the figures for the IC50 in assay [1] and in assay [2] were 15.1 µM and 29.8 µM, respectively.

With `COC(=O)CNC(=O)c1ccc2c(c1)nc(C(Cc1ccc(O)cc1)NC(=O)CCS)n2CC1CCCCC1` (centres unmarked) [Example 21, ({1-Cyclohexylmethyl-2-[2-(4-hydroxy-phenyl)-1-(3-mercapto-propionylamino)-ethyl]-1H-benzoimidazole-5-carbonyl}-amino)-acetic acid methyl ester], the IC50 in assay [1] and in assay [2] was above 200 µM each time.

On to `COC(=O)CNC(=O)c1ccc2c(c1)nc(C(Cc1ccc(O)cc1)NC(=O)CCC(=O)O)n2C1CC1` (centres unmarked) [Example 25, N-[1-[1-Cyclopropyl-5-(methoxycarbonylmethyl-carbamoyl)-1H-benzoimidazol-2-yl]-2-(4-hydroxyphenyl)-ethyl]-succinamic acid], for which the IC50 in assay [1] stood at 28.3 µM; in assay [2], 12.8 µM.

For `COC(=O)CNC(=O)c1ccc2c(c1)nc(C(Cc1ccccc1)NC(=O)CCC(=O)NO)n2Cc1ccc(Cl)cc1` (centres unmarked) [Example 40, ({1-(4-Chloro-benzyl)-2-[1-(3-hydroxycarbamoyl-propionylamino)-2-phenyl-ethyl]-1H-benzoimidazole-5-carbonyl}-amino)-acetic acid methyl ester], the IC50 in assay [1] came out at 0.021 µM; in assay [2], 1.4 µM.

Regarding `COC(=O)CNC(=O)c1ccc2c(c1)nc(C(Cc1cccc3ccccc13)NC(=O)CCC(=O)NO)n2Cc1ccccc1` (centres unmarked) [Example 46, ({1-Benzyl-2-[1-(3-hydroxycarbamoyl-propionylamino)-2-naphthalen-1-yl-ethyl]-1H-benzoimidazole-5-carbonyl}-amino)-acetic acid methyl ester], the IC50 in assay [1] was determined as 0.9 µM; in assay [2] it was 6.5 µM.

Take `COC(=O)CNC(=O)c1ccc2c(c1)nc(C(Cc1ccc(O)cc1)NC(=O)CCS)n2C1CC1` (centres unmarked) [Example 20, ({1-Cyclopropyl-2-[2-(4-hydroxy-phenyl)-1-(3-mercapto-propionylamino)-ethyl]-1H-benzoimidazole-5-carbonyl}-amino)-acetic acid methyl ester]: the IC50 in assay [1] and in assay [2] was above 200 µM in each case.

As for `COC(=O)CNC(=O)c1ccc2c(c1)nc(C(Cc1ccc(O)cc1)NC(=O)CCC(=O)O)n2CC1CCCCC1` (centres unmarked) [Example 26, N-[1-[1-Cyclohexylmethyl-5-(methoxycarbonylmethyl-carbamoyl)-1H-benzoimidazol-2-yl]-2-(4-hydroxyphenyl)-ethyl]-succinamic acid], the IC50 was 25 µM in assay [1] and 35.2 µM in assay [2].

For the compound `COC(=O)CNC(=O)c1ccc2c(c1)nc(C(CC(C)C)NC(=O)CCC(=O)O)n2CCO` (centres unmarked) [Example 28, N-{1-[1-(2-Hydroxy-ethyl)-5-(methoxycarbonylmethyl-carbamoyl)-1H-benzoimidazol-2-yl]-3-methylbutyl}-succinamic acid], the IC50 in assay [1] was 34.4 µM; in assay [2], above 200 µM.

For the compound `COC(=O)CNC(=O)c1ccc2c(c1)nc(C(CCCCN)NC(=O)CCS)n2Cc1ccccc1` (centres unmarked) [Example 49, ({2-[5-Amino-1-(3-mercapto-propionylamino)-pentyl]-1-benzyl-1H-benzoimidazole-5-carbonyl}-amino)-acetic acid methyl ester], the IC50 was found to be 2.4 µM in assay [1] and 5.2 µM in assay [2].

As for `COC(=O)CNC(=O)c1ccc2c(c1)nc(C(Cc1ccccc1)NC(=O)CCC(=O)NO)n2CCN` (centres unmarked) [Example 56, ({1-(2-Amino-ethyl)-2-[1-(3-hydroxycarbamoyl-propionylamino)-2-phenyl-ethyl]-1H-benzoimidazole-5-carbonyl}-amino)-acetic acid methyl ester], the IC50 amounted to 1.6 µM in assay [1] and 2 µM in assay [2].

With `COC(=O)CNC(=O)c1ccc2c(c1)nc(C(Cc1ccccc1)NC(=O)CCS)n2CCN` (centres unmarked) [Example 50, ({1-(2-Amino-ethyl)-2-[1-(3-mercapto-propionylamino)-2-phenyl-ethyl]-1H-benzoimidazole-5-carbonyl}-amino)-acetic acid methyl ester], the concentration for half-maximal inhibition (IC50) in assay [1] came out at 3.8 µM; in assay [2] it was 7.2 µM.

Turning to `CCCCn1c(C(CC(C)C)NC(=O)CCC(=O)O)nc2cc(C(=O)NCC(=O)OC)ccc21` (centres unmarked) [Example 14, N-{1-[1-Butyl-5-(methoxycarbonylmethyl-carbamoyl)-1H-benzoimidazol-2-yl]-3-methyl-butyl}-succinamic acid], the IC50 in assay [1] is 2.6 µM; in assay [2] it was 7.3 µM.

On to `COC(=O)CNC(=O)c1ccc2c(c1)nc(C(CCCCN)NC(=O)CCS)n2C1CC1` (centres unmarked) [Example 48, ({2-[5-Amino-1-(3-mercapto-propionylamino)-pentyl]-1-cyclopropyl-1H-benzoimidazole-5-carbonyl}-amino)-acetic acid methyl ester], for which the IC50 in assay [1] turned out to be 2 µM; in assay [2], 3.6 µM.

Regarding `CCC(NC(=O)CCC(=O)O)c1nc2cc(C(=O)NCC(=O)OC)ccc2n1C1CC1` (centres unmarked) [Example 10, N-{1-[1-Cyclopropyl-5-(methoxycarbonylmethyl-carbamoyl)-1H-benzoimidazol-2-yl]-propyl}-succinamic acid], the half-inhibitory concentration (IC50) came to 0.023 µM in assay [1] and 5.6 µM in assay [2].

Consider `COC(=O)CNC(=O)c1ccc2c(c1)nc(C(Cc1ccccc1)NC(=O)CCC(=O)O)n2Cc1ccco1` (centres unmarked) [Example 5, N-{1-[1-Furan-2-ylmethyl-5-(methoxycarbonylmethyl-carbamoyl)-1H-benzoimidazol-2-yl]-2-phenyl-ethyl}-succinamic acid], for which the IC50 in assay [1] came to 1.6 µM; in assay [2], 12.9 µM.

For `COC(=O)CNC(=O)c1ccc2c(c1)nc(C(CCSC)NC(=O)CCC(=O)O)n2C1CC1` (centres unmarked) [Example 16, N-{1-[1-Cyclopropyl-5-(methoxycarbonylmethyl-carbamoyl)-1H-benzoimidazol-2-yl]-3-methylsulfanyl-propyl}-succinamic acid], the results for the IC50 in assay [1] and in assay [2] were 17.6 µM and 47.2 µM, respectively.

As for `COC(=O)CNC(=O)c1ccc2c(c1)nc(C(Cc1ccccc1)NC(=O)CCC(=O)O)n2Cc1ccc(Cl)cc1` (centres unmarked) [Example 6, N-{1-[1-(4-Chloro-benzyl)-5-(methoxycarbonylmethyl-carbamoyl)-1H-benzoimidazol-2-yl]-2-phenyl-ethyl}-succinamic acid], the half-maximal inhibitory concentration (IC50) came to 0.093 µM in assay [1] and 1.3 µM in assay [2].

Take `COC(=O)CNC(=O)c1ccc2c(c1)nc(C(CCc1ccccc1)NC(=O)CCC(=O)O)n2C1CC1` (centres unmarked) [Example 7, N-{1-[1-Cyclopropyl-5-(methoxycarbonylmethyl-carbamoyl)-1H-benzoimidazol-2-yl]-3-phenyl-propyl}-succinamic acid]: the results for the IC50 in assay [1] and in assay [2] were 2.7 µM and 2.6 µM, respectively.

For `COC(=O)CNC(=O)c1ccc2c(c1)nc(C(CCc1ccccc1)NC(=O)CCC(=O)NO)n2C1CC1` (centres unmarked) [Example 41, ({1-Cyclopropyl-2-[1-(3-hydroxycarbamoyl-propionylamino)-3-phenyl-propyl]-1H-benzoimidazole-5-carbonyl}-amino)-acetic acid methyl ester], the IC50 worked out at 0.363 µM in assay [1] and 2.3 µM in assay [2].

The values above are taken from patent US20070066672A1, “Benzimidazole derivatives and use thereof as peptide deformylase inhibitors” (Arpida A/S, priority 2003, published 2007).
